In US20080194585A1, “Fungicidal Pyrazine Derivatives” (priority 2005, published 2008):
Marks after values point to notes of the source that are not given here.

Tests used:
fusarium graminearium = test: Test I: wheat head scab, preventive spray on wheat seedlings; details: 200 ppm
Protocol: (the causal agent of wheat head scab) and incubated in a saturated atmosphere at 20° C. for 72 h, and then moved to a growth chamber at 22° C. for 5 days, after which disease ratings were made.

[1] = tested on: Colletotrichum orbiculare; test: Test B: cucumber Colletotrichum anthracnose, preventive spray on cucumber seedlings
Botrytis cinerea = test: Test E: tomato botrytis, preventive spray on tomato seedlings
Septoria nodorum = test: Test H: wheat glum blotch, preventive spray on wheat seedlings
Protocol: (the causal agent of wheat glum blotch) and incubated in a saturated atmosphere at 20° C. for 48 h, and then moved to a growth chamber at 22° C. for 5 days, after which disease ratings were made.

Rhizoctonia oryzae = test: Test G: turf brown patch, preventive spray on creeping bent grass seedlings
Protocol: (the causal agent of turf brown patch) and incubated in a saturated atmosphere at 27° C. for 24 h, and then moved to a growth chamber at 27° C. for 5 days, after which disease ratings were made.

[2] = tested on: Puccinia recondita f. sp. tritici; test: Test K: wheat leaf rust, preventive spray on wheat seedlings
Pythium aphanidermatum = test: Test A: bluegrass pythium blight, preventive spray on bluegrass seedlings; details: 200 ppm
Phytophthora infestans = test: whole plant or invertebrate; format: in vivo; details: 200 ppm
Sclerotinia sclerotiorum = test: Test C: cucumber white mold, preventive spray on cucumber seedlings
[3] = tested on: Erysiphe graminis f. sp. tritici; test: Test L: wheat powdery mildew, preventive spray on wheat seedlings
Plasmopara viticola = test: Test D: grape downy mildew, spray after inoculation of grape seedlings; format: in vivo; details: 200 ppm
From the text: Upon removal, disease ratings were made. […] A dash (-) indicates no test results.

Septoria tritici = test: Test J: wheat leaf blotch, preventive spray on wheat seedlings; format: in vivo
From the text: A dash (-) indicates no test results.

Structure (SMILES) | Test I disease control rating (fusarium graminearium) | Test B disease control rating ([1]; 200 ppm) | Test E disease control rating (Botrytis cinerea; 200 ppm) | Test H disease control rating (Septoria nodorum; 200 ppm) | Test G disease control rating (Rhizoctonia oryzae; 200 ppm) | Test K disease control rating ([2]; 200 ppm) | Test A disease control rating (Pythium aphanidermatum) | Test F disease control rating (Phytophthora infestans) | Test C disease control rating (Sclerotinia sclerotiorum; 200 ppm) | Test L disease control rating ([3]; 200 ppm) | Test D disease control rating (Plasmopara viticola) | Test J disease control rating (Septoria tritici; 200 ppm) | Test J disease control rating (Septoria tritici; 40 ppm (*)) | Test B disease control rating ([1]; 40 ppm (*)) | Test E disease control rating (Botrytis cinerea; 40 ppm (*)) | Test H disease control rating (Septoria nodorum; 40 ppm (*)) | Test G disease control rating (Rhizoctonia oryzae; 40 ppm (*)) | Test K disease control rating ([2]; 40 ppm (*)) | Test C disease control rating (Sclerotinia sclerotiorum; 40 ppm (*)) | Test L disease control rating ([3]; 40 ppm (*))
CC(C)Cn1c(-c2c(F)cc(F)cc2F)c(Cl)nc(-n2cccn2)c1=O [compound 7] | 99% | 100% | 100% | 100% | 95% | 100% | 51% | 0% | 95% | 100% | 88% | 100% | – | – | – | – | – | – | – | –
O=c1c(-n2cccn2)nc(Cl)c(-c2c(F)cccc2F)n1CC1CC1 [compound 18] | 0% | 100% | 100% | 100% | 100% | 100% | 0% | 0% | 99% | 100% | 98% | 100% | – | – | – | – | – | – | – | –
CCC(C)Cn1c(-c2c(F)cc(F)cc2F)c(Cl)nc(-n2cccn2)c1=O (stereo not drawn) [compound 19] | 90% | 100% | 100% | 100% | 100% | 100% | 0% | 27% | 98% | 100% | 46% | 100% | – | – | – | – | – | – | – | –
CC(C)Cn1c(-c2ccc(Cl)cc2)c(Cl)nc(-n2cncn2)c1=O [compound 23] | 68% | 21% | 99% | 98% | 33% | 68% | 0% | 0% | 0% | 0% | 0% | 98% | – | – | – | – | – | – | – | –
Cc1nc(C)n(-c2nc(Cl)c(-c3ccc(Cl)cc3)n(CC(C)C)c2=O)n1 [compound 24] | 0% | 0% | 0% | 0% | 0% | 0% | 0% | 0% | 0% | 0% | 5% | 80% | – | – | – | – | – | – | – | –
CC(C)Cn1c(-c2c(Cl)cccc2Cl)c(Cl)nc(-n2cccn2)c1=O [compound 43] | 0% | 99% | 100% | 100% | 92% | 100% | 0% | 0% | 94% | 96% | 0% | – | 100* % | – | – | – | – | – | – | –
CC(C)Cn1c(-c2ccc(Cl)cc2F)c(Cl)nc(-n2cccn2)c1=O [compound 45] | 82% | 100% | 100% | 100% | 26% | 100% | 0% | 0% | 85% | 85% | 0% | – | 100* % | – | – | – | – | – | – | –
O=c1c(-n2cccn2)nc(Cl)c(-c2c(F)cccc2F)n1C1CCCCC1 [compound 47] | 78% | 54% | 100% | 99% | 92% | 95% | 74% | 0% | 0% | 99% | 0% | 100% | – | – | – | – | – | – | – | –
CC(C)Cn1c(-c2cccc(F)c2F)c(Cl)nc(-n2cccn2)c1=O [compound 50] | 0% | 0% | 100% | 100% | 95% | 100% | 0% | 0% | 98% | 94% | 0% | – | 100* % | – | – | – | – | – | – | –
CC(C)Cn1c(-c2cc(F)ccc2F)c(Cl)nc(-n2cccn2)c1=O [compound 56] | 60% | 99% | 100% | 100% | 92% | 99% | 0% | 0% | 99% | 99% | 29% | – | 100* % | – | – | – | – | – | – | –
CC(C)Cn1c(-c2c(F)ccc(F)c2F)c(Cl)nc(-n2cccn2)c1=O [compound 57] | 0% | 100% | 100% | 100% | 98% | 100% | 0% | 0% | 98% | 100% | 32% | – | 99* % | – | – | – | – | – | – | –
CCC(C)Cn1c(-c2c(F)cccc2F)c(Cl)nc(-n2ccc(C)n2)c1=O (stereo not drawn) [compound 66] | 0% | – | – | – | – | – | 0% | 0% | – | – | 0% | – | 100* % | 62* % | 100* % | 89* % | 95* % | 97* % | 0* % | 99* %
CCC(C)Cn1c(-c2c(F)cccc2F)c(Cl)nc(-n2cnc(C#N)c2C#N)c1=O (stereo not drawn) [compound 67] | 0% | – | – | – | – | – | 0% | 0% | 0% | – | 0% | 24% | – | 0* % | 0* % | 0* % | 0* % | 0* % | – | 0* %
